Data on 22 compounds can be found in patent US10344024B2, “Compounds as ROR gamma modulators” (Glenmark Pharmaceuticals S.A., priority 2015, dated 2019).

The structures appear in SMILES notation.

Broadly, the inhibition is the percentage by which the read-out fell short of the control. The term IC50 denotes the concentration needed to halve the response being measured.

In this experiment the target is T1, GST-tagged ROR gamma ligand binding domain (LBD) (Homo sapiens, UniProt P51449).
T1 construct: purchased Invitrogen
T1 sequence (P51449 269-508 limits assumed): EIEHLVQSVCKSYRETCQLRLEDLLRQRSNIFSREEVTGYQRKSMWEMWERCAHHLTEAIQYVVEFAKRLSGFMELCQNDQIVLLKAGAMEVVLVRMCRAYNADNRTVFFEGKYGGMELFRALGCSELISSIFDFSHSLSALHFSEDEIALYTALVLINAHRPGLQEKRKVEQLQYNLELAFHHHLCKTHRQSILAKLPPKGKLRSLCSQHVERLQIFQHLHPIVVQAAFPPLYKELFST
Briefly: TR-FRET assay for ROR gamma (LanthaScreen co-activator peptide recruitment). The note with it: for inhibition at 1 µM: compound concentration 1 μM; for inhibition at 1 µM / inhibition at 10 µM: TR-FRET ratio 520/495, percent of control; for inhibition at 10 µM: compound concentration 10 μM; for IC50: from dose response curve, nonlinear regression, read-out: IC50 range. In kind it is biochemical. The text has this: The compounds described herein were screened for ROR gamma modulator activity using the TR-FRET assay (LanthaScreen™ available from Invitrogen of Carlsbad, Calif.) as described in JBC 2011, 286, 26: 22707-10; and Drug Metabolism and Disposition 2009, 37, 10: 2069-78.
Binding of the co-activator peptide, causes an increase in the TR-FRET signal while binding of an antagonist decreases the recruitment of the co-activator peptide, causing a decrease in the TR-FRET signal compared to control with no compound. The assay was performed using a two-step procedure, pre-incubation step with the compound followed by the detection step on addition of the anti-GST tagged terbium (Tb) and fluorescein tagged fluorophores as the acceptor.
Test compounds or reference compounds such as T0901317 (Calbiochem) were dissolved in dimethylsulfoxide (DMSO) to prepare 10.0 mM stock solutions and diluted to the desired concentration. The final concentration of DMSO in the reaction was 4% (v/v). The assay mixture was prepared by mixing 10 nM of the GST-tagged ROR gamma ligand binding domain (LBD) in the assay buffer containing 25 mM HEPES (pH 7.4), 100 mM NaCl, 5 mM DTT and 0.01% BSA with or without the desired concentration of the compound. The reaction was incubated at 22° C. for 1 hour. The pre-incubation step was terminated by addition of the detection mixture containing 300 nM Fluorescein-D22 co-activator peptide and 10 nM lantha screen Tb-anti GST antibody into the reaction mixture.
After shaking for 5 minutes the reaction was further incubated for 1 hour at room temperature and read at 4° C. on an Infinite F500 reader as per the kit instructions (Invitrogen). The inhibition of test compound was calculated based on the TR-FRET ratio of 520/495. The activity was calculated as a percent of control reaction. IC50 values were calculated from dose response curve by nonlinear regression analysis using GraphPad Prism software.
For orientation: TR-FRET usually uses a lanthanide donor and a delayed reading to cut background.

Turning to `CC(O)C(F)(F)c1ccc(CC(=O)Nc2ccc(-c3nccnc3-c3ccc(F)cc3)cc2)cc1` (stereo not shown) [Example 8, 2-(4-(1,1-Difluoro-2-hydroxypropyl)phenyl)-N-(4-(3-(4-fluorophenyl)pyrazin-2-yl)phenyl)acetamide], the inhibition at 1 µM amounted to 73.6%, the inhibition at 10 µM worked out at 85.3% and the IC50 was in the range of 100 to 500 nM.

On to `CCC(F)(F)c1ccc(CC(=O)Nc2ccc(-c3nccnc3NC(CO)c3ccccc3)cc2)cc1` (stereo not shown) [Example 97, 2-(4-(1,1-Difluoropropyl)phenyl)-N-(4-(3-((2-hydroxy-1-phenylethyl)amino)pyrazin-2-yl)phenyl)acetamide], for which the inhibition at 1 µM came out at 22.5% and the inhibition at 10 µM is 46.2%.

Consider `CCC(F)(F)c1ccc(CC(=O)Nc2ccc(-c3nccnc3-c3ccc(C)cc3F)cc2)cc1` [Example 48, 2-(4-(1,1-Difluoropropyl)phenyl)-N-(4-(3-(2-fluoro-4-methylphenyl)pyrazin-2-yl)phenyl)acetamide], for which the inhibition at 1 µM was found to be 79.2%, the inhibition at 10 µM was found to be 84.1% and the IC50 was less than 50 nM.

`CC(O)C(F)(F)c1ccc(CC(=O)Nc2ccc(-c3nccnc3OCc3ccccc3Cl)cc2)cc1` (stereo not shown) [Example 91, N-(4-(3-((2-Chlorobenzyl)oxy)pyrazin-2-yl)phrnyl)-2-(4-(1,1-difluoro-2-hydroxypropyl)phenyl)acetamide]: the inhibition at 1 µM is 79.3%, the inhibition at 10 µM is 82.6% and the 50% inhibitory concentration (IC50) is less than 50 nM.

Turning to `CCC(F)(F)c1ccc(CC(=O)Nc2ccc(-c3ncccc3-c3ccc(F)cc3)cc2)cc1` [Example 14, 2-(4-(1,1-Difluoropropyl)phenyl)-N-(4-(3-(4-fluorophenyl)pyridin-2-yl)phenyl)acetamide], the inhibition at 1 µM stood at 74.4%, the inhibition at 10 µM came to 83.8% and the half-inhibitory concentration (IC50) lay within 100 to 500 nM.

Take `CC(O)C(F)(F)c1ccc(CC(=O)Nc2ccc(-c3nccnc3OCc3ccccc3)cc2)cc1` (stereo not shown) [Example 78, N-(4-(3-(Benzyloxy)pyrazin-2-yl)phenyl)-2-(4-(1,1-difluoro-2-hydroxypropyl)phenyl)acetamide]: the inhibition at 1 µM amounted to 89.6%, the inhibition at 10 µM came to 93.9% and the IC50 is less than 50 nM.

As to `CC(O)C(F)(F)c1ccc(CC(=O)Nc2ccc(-c3nccnc3N3CCN(C(=O)C4CC4)CC3)cc2)cc1` (stereo not shown) [Example 54, N-(4-(3-(4-(Cyclopropanecarbonyl)piperazin-1-yl)pyrazin-2-yl)phenyl)-2-(4-(1,1-difluoro-2-hydroxypropyl)phenyl)acetamide], the inhibition at 1 µM was found to be 23.1% and the inhibition at 10 µM was determined as 42.4%.

As for `CCc1ccccc1-c1nccnc1-c1ccc(NC(=O)Cc2ccc(C(F)(F)C(C)O)cc2)cc1` (stereo not shown) [Example 40, 2-(4-(1,1-Difluoro-2-hydroxypropyl)phenyl)-N-(4-(3-(2-ethylphenyl)pyrazin-2-yl)phenyl)acetamide], the inhibition at 1 µM amounted to 71.4%, the inhibition at 10 µM came to 76.9% and the IC50 is less than 50 nM.

For `CCN1CCN(c2nccnc2-c2ccc(NC(=O)Cc3ccc(C(F)(F)CC)cc3)cc2)CC1` [Example 33, 2-(4-(1,1-Difluoropropyl)phenyl)-N-(4-(3-(4-ethylpiperazin-1-yl)pyrazin-2-yl)phenyl)acetamide], the inhibition at 1 µM is 27.3% and the inhibition at 10 µM was found to be 75.8%.

For `CCC(F)(F)c1ccc(CC(=O)Nc2ccc(-c3nccnc3-c3ccccc3F)cc2)cc1` [Example 11, 2-(4-(1,1-Difluoropropyl)phenyl)-N-(4-(3-(2-fluorophenyl)pyrazin-2-yl)phenyl)acetamide], the inhibition at 1 µM was found to be 78.8%, the inhibition at 10 µM amounted to 83.8% and the IC50 was less than 50 nM.

Consider `CCC(F)(F)c1ccc(CC(=O)Nc2ccc(-c3nccnc3-c3ccc(C)cc3C)cc2)cc1` [Example 47, 2-(4-(1,1-Difluoropropyl)phenyl)-N-(4-(3-(2,4-dimethylphenyl)pyrazin-2-yl)phenyl)acetamide], for which the inhibition at 1 µM stood at 82.3%, the inhibition at 10 µM worked out at 82.3% and the IC50 was less than 50 nM.

As to `CCC(F)(F)c1ccc(CC(=O)Nc2ccc(-c3nccnc3N3CCN(C4COC4)CC3)cc2)cc1` [Example 99, 2-(4-(1,1-Difluoropropyl)phenyl)-N-(4-(3-(4-(oxetan-3-yl)piperazin-1-yl)pyrazin-2-yl)phenyl)acetamide], the inhibition at 1 µM came to 79.2%, the inhibition at 10 µM came to 91.9% and the half-maximal inhibitory concentration (IC50) fell in the range of 50 to 100 nM.

Take `CCC(F)(F)c1ccc(CC(=O)Nc2ccc(-c3nccnc3N3CCN(C(C)=O)CC3C)cc2)cc1` (stereo not shown) [Example 42, N-(4-(3-(4-Acetyl-2-methylpiperazin-1-yl)pyrazin-2-yl)phenyl)-2-(4-(1,1-difluoropropyl)phenyl)acetamide]: the inhibition at 1 µM came out at 51.9% and the inhibition at 10 µM worked out at 76.1%.

In the case of `CCC(F)(F)c1ccc(CC(=O)Nc2ccc(-c3nccnc3-c3ccc(Cl)cc3F)cc2)cc1` [Example 6, N-(4-(3-(4-Chloro-2-fluorophenyl)pyrazin-2-yl)phenyl)-2-(4-(1,1-difluoropropyl)phenyl)acetamide], the inhibition at 1 µM was found to be 87.4%, the inhibition at 10 µM is 86.4% and the IC50 was less than 50 nM.

As to `CCC(F)(F)c1ccc(CC(=O)Nc2ccc(-c3nccnc3O[C@@H](C)c3ccccc3Cl)cc2)cc1` [Example 85, (S)-N-(4-(3-(1-(2-Chlorophenyl)ethoxy)pyrazin-2-yl)phenyl)-2-(4-(1,1-difluoropropyl)phenyl)acetamide], the inhibition at 1 µM was determined as 74.8%, the inhibition at 10 µM is 79.6% and the IC50 is 100 to 500 nM.

`CC(O)C(F)(F)c1ccc(CC(=O)Nc2ccc(-c3nccnc3OC3(c4ccccc4)CC3)cc2)cc1` (stereo not shown) [Example 82, 2-(4-(1,1-Difluoro-2-hydroxypropyl)phenyl)-N-(4-(3-(1-phenylcyclopropoxy)pyrazin-2-yl)phenyl)acetamide]: the inhibition at 1 µM amounted to 37.9% and the inhibition at 10 µM amounted to 80.1%.

As for `CCC(F)(F)c1ccc(CC(=O)Nc2ccc(-c3nccnc3N[C@H](C)c3ccccc3)cc2)cc1` [Example 59, (R)-2-(4-(1,1-Difluoropropyl)phenyl)-N-(4-(3-((1-phenylethyl)amino)pyrazin-2-yl)phenyl)acetamide], the inhibition at 1 µM worked out at 58.6% and the inhibition at 10 µM is 79.7%.

Turning to `CC(O)C(F)(F)c1ccc(CC(=O)Nc2ccc(-c3nccnc3-c3ccc(Cl)cc3)cc2)cc1` (stereo not shown) [Example 2, N-(4-(3-(4-chlorophenyl)pyrazin-2-yl)phenyl)-2-(4-(1,1-difluoro-2-hydroxypropyl)phenyl)acetamide], the inhibition at 1 µM is 76.1%, the inhibition at 10 µM was found to be 82.7% and the half-inhibitory concentration (IC50) was less than 50 nM.

In the case of `CCC(F)(F)c1ccc(CC(=O)Nc2ccc(-c3nccnc3-c3ccc(Cl)cc3)cc2F)cc1` [Example 26, N-(4-(3-(4-Chlorophenyl)pyrazin-2-yl)-2-fluorophenyl)-2-(4-(1,1-difluoropropyl)phenyl)acetamide], the inhibition at 1 µM is 71.9%, the inhibition at 10 µM came out at 79.6% and the IC50 fell in the range of 100 to 500 nM.

Regarding `CCC(F)(F)c1ccc(CC(=O)Nc2ccc(-c3nccnc3N3CCN(C(=O)C4CC4)CC3)cc2)cc1` [Example 96, N-(4-(3-(4-(Cyclopropanecarbonyl)piperazin-1-yl)pyrazin-2-yl)phenyl)-2-(4-(1,1-difluoropropyl)phenyl)acetamide], the inhibition at 1 µM is 47.7% and the inhibition at 10 µM came out at 77.2%.

In the case of `CC(O)C(F)(F)c1ccc(CC(=O)Nc2ccc(-c3nccnc3-c3ccc(F)cc3Cl)cc2)cc1` (stereo not shown) [Example 39, N-(4-(3-(2-Chloro-4-fluorophenyl)pyrazin-2-yl)phenyl)-2-(4-(1,1-difluoro-2-hydroxypropyl)phenyl)acetamide], the inhibition at 1 µM is 65.5% and the inhibition at 10 µM came out at 72.8%.

Consider `CC(O)C(F)(F)c1ccc(CC(=O)Nc2ccc(-c3nccnc3O[C@H](C)c3ccccc3Cl)cc2)cc1` (stereo partly drawn) [Example 84, N-(4-(3-((R)-1-(2-Chlorophenyl)ethoxy)pyrazin-2-yl)phenyl)-2-(4-(1,1-difluoro-2-hydroxypropyl)phenyl)acetamide], for which the inhibition at 1 µM amounted to 83.8%, the inhibition at 10 µM was 81.9% and the IC50 lay in the range of 50 to 100 nM.
